Reference: patent US20110207694A1, “MAMMALIAN HYPOTHALAMIC NUTRIENT MODULATION OF GLUCOSE METABOLISM” (priority 2005, published 2011)
“Also recorded” adds a separate entry of the source.

Experiments:
[1] = tested on: conscious rats; assay: ICV glucose or lactate infusion with pancreatic basal insulin clamp: plasma glucose and liver glucose production; type: in vivo, rat
Text: We hypothesize that the hypothalamic sensing of glucose-derived pyruvate is a novel regulator of endogenous glucose production (GP). […] We propose that an increase in neuronal pyruvate levels is a hypothalamic signal of nutrient availability.
Long chain fatty acids in the brain decrease glucose production (GP) by the liver via activation of hypothalamus ATP-sensitive (KATP) channels. Here we tested whether (A) direct administration of glucose in the third cerebral ventricle can alter glucose production by the liver, and (B) whether this effect requires its metabolism in the TCA cycle.

[2] = tested on: high fat-fed rats; assay: ICV glucose or lactate in high fat-fed rats: plasma triglycerides and VLDL secretion; type: in vivo, rat
Procedure: High fat feeding. Male Sprague-Dawley rats were fed a highly palatable high fat diet for three days. These rats developed hyperinsulinemia and hepatic insulin resistance (Morgan et al., 2004). […] In a separate set of studies, lipoprotein secretion studies were performed at the beginning of the ICV infusions.

[3] = tested on: conscious rats; assay: Intravenous lactate infusion with or without MBH oxamate: plasma TG and hepatic TG-VLDL production; type: in vivo, rat
Procedure: (§1) Infusion protocols. The in vivo infusion experiments lasted a total of 360 min, and the experiments were carried out in rats that had their food removed ˜5 h before the experiments. Thus, at the time of the experiment, the rats are in post-absorptive state since their stomach should be completely emptied by 5 h fasting. […] This ICV glucose protocol physiologically elevate hypothalamic glucose concentration by ˜70% as previously described (Lam et al., 2005b) and is similar to that induced by a doubling of the circulating glucose levels (Lam et al., 2005b). During the ICV infusions, we monitored the plasma metabolite levels under pre-infused (0 min), basal (180-240 min) and pancreatic clamp (300-360 min) conditions. […] A basal insulin-pancreatic clamp was performed in the final 2 h (240-360 min) of the study as previously described (Lam et al., 2005b). In brief, a continuous infusion of insulin (1 mU/kg.min) and somatostatin (3 μg/kg.min) was administered, and a variable infusion of a 25% glucose solution was started and periodically adjusted to clamp and maintain the plasma glucose concentration at ˜8 mM. […] To examine the time-dependent effects of ICY glucose on plasma triglycerides, ICY (5 μl/h) 2 mM D-glucose or mannitol was administrated for 210 min and plasma triglyceride levels were monitored at 0, 20, 60, 120, 180, 210 min. […] Plasma triglycerides were monitored under basal, pancreatic clamp and tyloxapol-treated conditions. At the end of the infusion experiments, rats were anesthetized and tissue samples were freeze-clamped in situ with aluminum tongs pre-cooled in liquid nitrogen. All tissue samples were stored at −80° C. for subsequent analysis.
VLDL are decreased in the hours following an acute bout of exercise. […] To investigate the mechanism by which lactate lowers plasma TG levels, the rate of production of hepatic TG-enriched VLDL was measured.

[4] = tested on: high fat-fed rats; assay: Central glucose or lactate in regular chow vs 3-day high fat diet-fed animals: glucose production; type: in vivo, rat; settings: central administration
Text: The latter is an excellent model for diet-induced insulin resistance.

[5] = tested on: conscious rats; assay: Circulating lactate infusion with central LDH inhibitor or KATP blocker: glucose kinetics during pancreatic clamps; settings: pancreatic clamps
[6] = tested on: male Sprague-Dawley rats; assay: ICV infusion: plasma triglycerides and metabolites under basal and pancreatic clamp conditions; type: in vivo, rat
Text: Animal preparation. We studied 10-week-old male Sprague-Dawley rats. Rats underwent stereotaxic surgery to indwell single catheters in the third cerebral ventricle {intracerebroventricular (ICV)(Obici et al., 2001) or bilateral catheters into the mediobasal hypothalamus (Lam et al., 2005c). One week later, we placed indwelling catheters in the internal jugular vein and carotid artery for sampling and infusion during the in vivo experiments (Obici et al., 2001). Recovery from surgery was monitored by measuring daily food intake and weight gain for 4-5 days after surgery.
as §1
Biochemical analyses. Plasma glucose concentrations were measured by the glucose oxidase method (Glucose Analyzer II, Beckman Instruments, Inc., Fullerton, Calif.). […] FFA concentrations were determined by an enzyme assay in accordance with the manufacturer's specifications (Waco Pure Chemical Industries. Osaka. Japan). Plasma insulin concentrations (with rat and porcine insulin standards) were measured by radioimmunoassay (RIA). Plasma adiponectin concentrations were measured by RIA (Linco Inc., Austin, Tex., USA). Liver triglycerides were measured as described (Muse et al., 2004).
Calculations. Statistical analysis was done by unpaired Student's t test or analysis of variance as appropriate. Data are presented as means±SEM. All values were collapsed into a single value for each animal prior to the calculation of mean. The time period 180-240 min was averaged for the basal and the time period 300-360 min was averaged for the clamp conditions.

[7] = tested on: rats; assay: Food intake after central (ICV) glucose or lactate; type: in vivo, rat
[8] = tested on: hepatic VLDL secretion; assay: Lipoprotein (VLDL) secretion studies with tyloxapol; NMR particle size; type: in vivo, rat; settings: increased central metabolism of lactate to pyruvate, rats (Example 3)
Procedure: Lipoproteins secretion and particles concentration and size measurements. Tyloxapol (600 mg/kg; ˜1 min) was intravenously injected to inhibit endogenous lipoprotein lipase. This high dose of tyloxapol ensured complete inhibition of triglyceride clearance during VLDL secretion studies. Plasma samples were taken every 30 min for triglycerides analysis and for lipoprotein profiling. Plasma VLDL particles concentration and size were determined by nuclear magnetic resonance spectroscopy (lipoprofile-II test) at Liposcience as previously described (Otvos et al., 1991; 1992). This NMR lipoprofile-II test is based on the assumption that each plasma lipoprotein particle of a particular size gives its own characteristic lipid NMR signal. The intensity of the signal is also in proportion to the concentration of the particle. The diameter range for large, medium and small VLDL is >60 nm, 35-60 nm, and 27-35 nm, respectively.
Selective hepatic branch vagotomy. The surgeries were performed as described (Lam et al., 2005c).
Treatment with SCD1 ASO. Five and two days before the lipoprotein secretion studies, rats received a single intra-peritoneal injection of either SCD1 or scrambled (SCR) ASO (100 mg/kg of body weight). […] In a separate set of studies, rats received intra-portal injection of either SCD1 or SCR ASO (40 mg/kg of body weight) (Gutierrez-Juarez et al., 2006) three days before the lipoprotein secretion studies.
Portal oleate infusion. Chronic portal catheter was implanted and 7 days were allowed for rat recovery. Oleic acid (45 mM; dissolved in 45% HBP) was infused at a rate of 40 μl/h for 2.5 h (1 h before the 90 min lipoprotein secretion studies). This dose enabled the reconstitution of hepatic oleyl-CoA levels back to normal during portal SCD1 ASO (FIG. 11c) or ICV glucose studies (FIG. 11d).

**Q.** With `C[C@H](O)C(=O)O` [lactate, L-lactate] as the molecule, how does the circulating glucose levels ([1]; central (ICV) administration) read?
**A.** sufficient to markedly diminish circulating glucose levels; also recorded: lowered circulating glucose levels

**Q.** And the gluconeogenesis and glycogenolysis ([1]; central administration)?
**A.** inhibited gluconeogenesis and glycogenolysis

**Q.** And the “liver glucose production, G6Pase flux and mRNA” value ([1]; central administration)?
**A.** reduced liver glucose production, G6Pase flux and mRNA

**Q.** And the plasma glucose concentrations ([1]; four hour ICV infusion 5 μl/h (glucose 2 mM, lactate 5 mM), control 150±4)?
**A.** 129 ± 3 mg/dL

**Q.** What about the “exogenous glucose infusion rate required to maintain euglycemia” value ([1]; pancreatic basal insulin clamps, central administration) of the same molecule?
**A.** increased exogenous glucose infusion rate

**Q.** And the “GP (glucose production)” value ([1]; pancreatic clamps, plasma glucose and insulin at basal, ICV infusion, control 10.4±0.1 (glucose), 11.7±0.6 (lactate))?
**A.** 6.5 ± 0.6 mg/kg/min

**Q.** What about the “rate of appearance of VLDL-triglycerides in plasma” value ([2]; HF rats, tyloxapol) of the same molecule?
**A.** decreased the rate of appearance of VLDL-triglycerides in plasma to levels similar to those of SC rats

**Q.** And the “circulating levels of triglycerides” value ([2]; high fat-fed rats)?
**A.** effectively lowered the circulating levels of triglycerides to levels similar to those of rats on a standard chow

**Q.** And the “plasma TG levels” value ([3]; i.v. lactate 100 μmol•kg-1•min-1, i.v. saline 0.28±0.09)?
**A.** 0.11 ± 0.02 mM

**Q.** And the “rate of production of hepatic TG-enriched VLDL” value ([3]; i.v. lactate infusion, i.v. saline 0.059±0.003)?
**A.** 0.041 ± 0.002 mM/min

**Q.** What about the “decrease in VLDL production” value ([3]; i.v. lactate vs i.v. saline) of the same molecule?
**A.** 31%

**Q.** And the “lowering of plasma TG levels” value ([3]; i.v. lactate vs i.v. saline)?
**A.** > 50%

**Q.** What about the VLDL secretion ([3]; physiological increase in plasma lactate) of the same molecule?
**A.** sufficient to inhibit VLDL secretion

**Q.** And the plasma triglyceride ([3]; ~two-fold increase in circulating lactate, basal and clamp conditions)?
**A.** significant decrease in plasma triglyceride in both conditions

**Q.** And the glucose production ([4]; 3-day high fat diet-fed animals)?
**A.** entirely preserved; also recorded: lowered glucose production

**Q.** And the glucose production ([4]; regular chow animals)?
**A.** lowered glucose production

**Q.** What about the glucose infusion kinetics ([5]; intravenous infusion of lactate alone) of the same molecule?
**A.** did not affect glucose infusion kinetics

**Q.** What about the “elevation of plasma lactate” value ([5]; intravenous infusion of lactate) of the same molecule?
**A.** ~3 fold

**Q.** What about the “plasma free fatty acids levels” value ([6]; ICV infusion) of the same molecule?
**A.** did not affect plasma free fatty acids levels

**Q.** What about the plasma triglyceride levels ([6]; ICV infusion (glucose 2 mM, L-lactate 5 mM)) of the same molecule?
**A.** markedly decreased plasma triglycerides levels

**Q.** And the “suppression of plasma TG levels” value ([6]; increased central metabolism of lactate to pyruvate, rats (Example 3))?
**A.** ~50%

**Q.** What about the food intake overnight ([7]; central administration) of the same molecule?
**A.** inhibits food intake overnight

**Q.** And the “decrease in food intake” value ([7]; the day following ICV injection)?
**A.** ~40%

**Q.** What about the “suppression of hepatic TG-enriched VLDL production” value [8] of the same molecule?
**A.** ~40%
